Test results taken from patent US6914045B2, “Glycopeptide antibiotics” (Wyeth Holdings Corporation, priority 2001, dated 2005).
≈ marks a conversion by molar mass, not a printed value.

Experiments:
Assay in all cases: in vitro antibacterial evaluation, MIC by broth dilution
Format in all cases: cell-based
[1] = test system: Enterococcus sp.; conditions: broth dilution, 18 hours at 35° C.
Summary of the method: (§1)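 Following National Committee for Clinical Laboratory Standards recommendations (M7-A2), susceptibility was measured by dilution in Muller-Hinton II […]. Bacteria were seeded at 5×10^5 CFU/mL against compound concentrations from 64 down to 0.06 μg/mL.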

[2] = test system: Staphylococcus sp.; conditions: broth dilution, 18 hours at 35° C.
Summary of the method: as §1

[3] = test system: Streptococcus sp.; conditions: broth dilution, 18 hours at 35° C.
Summary of the method: as §1

[4] = test system: Escherichia coli; conditions: 18 hours at 35° C.

Compound: CC(c1ccccc1)C1NC(=O)CNC(=O)C(CO)NC(=O)C(C(O)C2CNC(=N)N2C2OC(CO)C(O)C(O)C2O)NC(=O)C(C(O)C2CNC(=N)N2)NC(=O)C(Cc2ccc(OC3OC(CO)C(OC4OC(CO)C(O)C(OCc5ccc(OCc6ccccc6)cc5)C4O)C(O)C3O)cc2)NC1=O (stereo not drawn) [Example 231c, Cyclo[glycyl-β-methylphenylalanyl-O-[4-O-[3-O-[4-(phenylmethoxy)benzyl]hexopyranosyl]-hexopyranosyl]tyrosyl-3-(2-iminoimidazolidin-4-yl)seryl-3-(3-hexopyranosyl-2-iminoimidazolidin-4-yl)serylseryl]]
- MIC Enterococcus avium (GC 4558) [1]: 4 µg/mL (≈ 2.68 µM)
- MIC Enterococcus faecalis (ATCC 29212) [1]: 4 µg/mL (≈ 2.68 µM)
- MIC Enterococcus faecalis (GC 2242) [1]: 4 µg/mL (≈ 2.68 µM)
- MIC Enterococcus faecalis (GC 2691) [1]: 8 µg/mL (≈ 5.36 µM)
- MIC Enterococcus faecalis (GC 3059) [1]: 4 µg/mL (≈ 2.68 µM)
- MIC Enterococcus faecalis (GC 4552) [1]: 4 µg/mL (≈ 2.68 µM)
- MIC Enterococcus faecalis (GC 4553) [1]: 4 µg/mL (≈ 2.68 µM)
- MIC Enterococcus faecalis (GC 4554) [1]: 4 µg/mL (≈ 2.68 µM)
- MIC Enterococcus faecalis (GC 6189) [1]: 4 µg/mL (≈ 2.68 µM)
- MIC Enterococcus faecium (GC 2243) [1]: 4 µg/mL (≈ 2.68 µM)
- MIC Enterococcus faecium (GC 4556) [1]: 4 µg/mL (≈ 2.68 µM)
- MIC Enterococcus faecium (GC 4557) [1]: 4 µg/mL (≈ 2.68 µM)
- MIC Enterococcus faecalis (ATCC 29212) ([1]; inoculum 5×10^5 CFU/mL, strain ATCC 29212): 4 µg/mL (≈ 2.68 µM)
- MIC Enterococcus faecalis (GC 2242) ([1]; inoculum 5×10^5 CFU/mL, strain GC 2242): 4 µg/mL (≈ 2.68 µM)
- MIC Enterococcus faecium (GC 2243) ([1]; inoculum 5×10^5 CFU/mL, strain GC 2243): 4 µg/mL (≈ 2.68 µM)
- MIC Enterococcus faecalis (GC 2691) ([1]; inoculum 5×10^5 CFU/mL, strain GC 2691): 8 µg/mL (≈ 5.36 µM)
- MIC Enterococcus faecalis (GC 3059) ([1]; inoculum 5×10^5 CFU/mL, strain GC 3059): 4 µg/mL (≈ 2.68 µM)
- MIC Enterococcus faecalis (GC 4552) ([1]; inoculum 5×10^5 CFU/mL, strain GC 4552): 4 µg/mL (≈ 2.68 µM)
- MIC Enterococcus faecalis (GC 4553) ([1]; inoculum 5×10^5 CFU/mL, strain GC 4553): 4 µg/mL (≈ 2.68 µM)
- MIC Enterococcus faecalis (GC 4554) ([1]; inoculum 5×10^5 CFU/mL, strain GC 4554): 4 µg/mL (≈ 2.68 µM)
- MIC Enterococcus faecium (GC 4556) ([1]; inoculum 5×10^5 CFU/mL, strain GC 4556): 4 µg/mL (≈ 2.68 µM)
- MIC Enterococcus faecium (GC 4557) ([1]; inoculum 5×10^5 CFU/mL, strain GC 4557): 4 µg/mL (≈ 2.68 µM)
- MIC Enterococcus avium (GC 4558) ([1]; inoculum 5×10^5 CFU/mL, strain GC 4558): 4 µg/mL (≈ 2.68 µM)
- MIC Enterococcus faecalis (GC 6189) ([1]; inoculum 5×10^5 CFU/mL, strain GC 6189): 4 µg/mL (≈ 2.68 µM)
- MIC Coagulase Negative Staphylococcus (GC 4547) [2]: 2 µg/mL (≈ 1.34 µM)
- MIC Coagulase Negative Staphylococcus (GC 4548) [2]: 0.5 µg/mL (≈ 0.335 µM)
- MIC Coagulase Negative Staphylococcus (GC 4549) [2]: 0.5 µg/mL (≈ 0.335 µM)
- MIC Coagulase Negative Staphylococcus (GC 4551) [2]: 1 µg/mL (≈ 0.67 µM)
- MIC Coagulase Negative Staphylococcus (GC 6257) [2]: 0.5 µg/mL (≈ 0.335 µM)
- MIC Staphylococcus aureus (ATCC 29213) [2]: 1 µg/mL (≈ 0.67 µM)
- MIC Staphylococcus aureus (GC 1131) [2]: 2 µg/mL (≈ 1.34 µM)
- MIC Staphylococcus aureus (GC 3051) [2]: 2 µg/mL (≈ 1.34 µM)
- MIC Staphylococcus aureus (GC 3053) [2]: 2 µg/mL (≈ 1.34 µM)
- MIC Staphylococcus aureus (GC 4541) [2]: 2 µg/mL (≈ 1.34 µM)
- MIC Staphylococcus aureus (GC 4542) [2]: 2 µg/mL (≈ 1.34 µM)
- MIC Staphylococcus aureus (GC 4544) [2]: 2 µg/mL (≈ 1.34 µM)
- MIC Staphylococcus aureus (GC 4545) [2]: 2 µg/mL (≈ 1.34 µM)
- MIC Staphylococcus aureus-SMITH (GC 4543) [2]: 1 µg/mL (≈ 0.67 µM)
- MIC Staphylococcus haemolyticus (GC 4546) [2]: 1 µg/mL (≈ 0.67 µM)
- MIC Staphylococcus aureus (ATCC 29213) ([2]; strain ATCC 29213): 1 µg/mL (≈ 0.67 µM)
- MIC Staphylococcus aureus (GC 1131) ([2]; strain GC 1131): 2 µg/mL (≈ 1.34 µM)
- MIC Staphylococcus aureus (GC 3051) ([2]; strain GC 3051): 2 µg/mL (≈ 1.34 µM)
- MIC Staphylococcus aureus (GC 3053) ([2]; strain GC 3053): 2 µg/mL (≈ 1.34 µM)
- MIC Staphylococcus aureus (GC 4541) ([2]; strain GC 4541): 2 µg/mL (≈ 1.34 µM)
- MIC Staphylococcus aureus (GC 4542) ([2]; strain GC 4542): 2 µg/mL (≈ 1.34 µM)
- MIC Staphylococcus aureus-SMITH (GC 4543) ([2]; strain GC 4543): 1 µg/mL (≈ 0.67 µM)
- MIC Staphylococcus aureus (GC 4544) ([2]; strain GC 4544): 2 µg/mL (≈ 1.34 µM)
- MIC Staphylococcus aureus (GC 4545) ([2]; strain GC 4545): 2 µg/mL (≈ 1.34 µM)
- MIC Staphylococcus haemolyticus (GC 4546) ([2]; strain GC 4546): 1 µg/mL (≈ 0.67 µM)
- MIC Coagulase Negative Staphylococcus (GC 4547) ([2]; strain GC 4547): 2 µg/mL (≈ 1.34 µM)
- MIC Coagulase Negative Staphylococcus (GC 4548) ([2]; strain GC 4548): 0.5 µg/mL (≈ 0.335 µM)
- MIC Coagulase Negative Staphylococcus (GC 4549) ([2]; strain GC 4549): 0.5 µg/mL (≈ 0.335 µM)
- MIC Coagulase Negative Staphylococcus (GC 4551) ([2]; strain GC 4551): 1 µg/mL (≈ 0.67 µM)
- MIC Coagulase Negative Staphylococcus (GC 6257) ([2]; strain GC 6257): 0.5 µg/mL (≈ 0.335 µM)
- MIC Streptococcus agalactiae (GC 4564) [3]: <0.12 µg/mL
- MIC Streptococcus pneumoniae (ATCC 6301) [3]: <0.12 µg/mL
- MIC Streptococcus pneumoniae (GC 1894) [3]: <0.12 µg/mL
- MIC Streptococcus pneumoniae (GC 4565) [3]: <0.12 µg/mL
- MIC Streptococcus pyogenes (GC 4563) [3]: <0.12 µg/mL
- MIC Streptococcus pneumoniae (ATCC 6301) ([3]; inoculum 5×10^5 CFU/mL, strain ATCC 6301): <0.12 µg/mL
- MIC Streptococcus pneumoniae (GC 1894) ([3]; inoculum 5×10^5 CFU/mL, strain GC 1894): <0.12 µg/mL
- MIC Streptococcus pyogenes (GC 4563) ([3]; inoculum 5×10^5 CFU/mL, strain GC 4563): <0.12 µg/mL
- MIC Streptococcus agalactiae (GC 4564) ([3]; inoculum 5×10^5 CFU/mL, strain GC 4564): <0.12 µg/mL
- MIC Streptococcus pneumoniae (GC 4565) ([3]; inoculum 5×10^5 CFU/mL, strain GC 4565): <0.12 µg/mL
- MIC Escherichia coli (ATCC 25922) [4]: >128 µg/mL
- MIC Escherichia coli (GC 4559) [4]: >128 µg/mL
- MIC Escherichia coli (GC 4560) [4]: 2 µg/mL (≈ 1.34 µM)
